In patent publication US20100255089A1, “Pharmaceutical Compositions and Methods of Using Same” (priority 2006, published 2010) one finds solubility data, which are given here for 1 molecule.

Molecules are shown by their SMILES.

A short description of the data set: physchem. The settings on record: simulated gastric fluid.

Protocol: In an uncapped vial, one part of the compound of Formula I is mixed with three, four, six, or nine parts polyvinylpyrrolidone (PVP-25/Kollidon 25), respectively. The mixture is dissolved in a sufficient amount of a mixture of acetone and ethanol, until all powders were in solution. The uncapped vial is placed into a vacuum oven set at 40° C., and let dry for at least 24 hours.
After that treatment, an amorphous state of the powder is achieved, which could be identified, e.g. by X-ray diffraction measurements or by determination of the solubility.

Usually solubility stands for the dissolved amount per volume that the medium holds. Lower therefore signals little dissolved substance. In turn, `Cc1cc(C)c2c3ccccc3n(Cc3ccc([C@@H](C(=O)N[C@@H](CO)c4ccccc4)C4CCCC4)cc3)c2n1` [compound of Formula I, (2S)-2-cyclopentyl-2-(4-((2,4-dimethyl-9H-pyrido(2,3-B)indol-9-yl)methyl)-phenyl)-N-((1R)-2-hydroxy-1-phenylethyl)acetamide] registered a solubility of 0.1 µg/mL.
